# Read-outs that look alike come from different tables or passages of the source.
# Experiments:
# STAT6 = target: T1, STAT6 (Homo sapiens, UniProt P42226); test: STAT6 Reporter Luciferase Assay (IL-13 stimulated HaCaT keratinocyte NanoLuc reporter cells); format: cell-based; conditions: read-out: Reporter EC50
# T1 construct: stably transfected HaCaT keratinocyte cell line, which expresses NanoLuc luciferase reporter gene under the transcriptional control of the STAT6 responsive promoter; endogenous in cells; host or cells: HaCaT keratinocyte reporter cell line (stably transfected with a NanoLuc reporter)
# T1 sequence (P42226 1-847): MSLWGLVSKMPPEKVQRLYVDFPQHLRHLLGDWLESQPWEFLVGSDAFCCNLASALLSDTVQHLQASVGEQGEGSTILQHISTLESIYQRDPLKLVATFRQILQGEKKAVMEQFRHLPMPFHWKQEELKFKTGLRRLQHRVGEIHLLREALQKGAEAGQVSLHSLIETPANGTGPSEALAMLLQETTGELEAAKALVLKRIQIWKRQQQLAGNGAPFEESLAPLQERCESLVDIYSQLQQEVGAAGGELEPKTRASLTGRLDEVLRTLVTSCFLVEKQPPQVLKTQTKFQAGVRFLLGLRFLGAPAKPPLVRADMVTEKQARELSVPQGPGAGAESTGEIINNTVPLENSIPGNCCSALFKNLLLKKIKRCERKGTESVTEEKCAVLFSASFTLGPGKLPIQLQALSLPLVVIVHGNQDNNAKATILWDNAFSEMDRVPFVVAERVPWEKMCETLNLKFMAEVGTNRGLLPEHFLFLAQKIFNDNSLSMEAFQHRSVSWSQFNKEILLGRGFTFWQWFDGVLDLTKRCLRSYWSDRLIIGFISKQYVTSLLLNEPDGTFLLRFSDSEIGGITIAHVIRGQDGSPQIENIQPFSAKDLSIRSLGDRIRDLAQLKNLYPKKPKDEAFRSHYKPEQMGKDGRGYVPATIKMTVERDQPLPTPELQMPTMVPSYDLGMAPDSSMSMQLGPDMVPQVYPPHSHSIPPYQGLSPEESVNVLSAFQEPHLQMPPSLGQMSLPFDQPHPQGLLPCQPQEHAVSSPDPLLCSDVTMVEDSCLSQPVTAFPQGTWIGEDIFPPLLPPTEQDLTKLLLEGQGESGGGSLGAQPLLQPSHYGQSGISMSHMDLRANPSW
# Procedure, shortened: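 Stably transfected HaCaT cells carrying NanoLuc under the STAT6-responsive IL-13Ra2 promoter were pre-treated with compound (11-point, 4-fold series, duplicate) for 2 h at 37 °C, then stimulated with 0.12 nM IL-13 for 4 h. Nano-Glo luminescence was read after 15 min.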
# [1] = test system: CCL17 secretion in peripheral human whole blood; test: Human Whole Blood (HWB) CCL17 TR-FRET Assay (IL-13 stimulated CCL17 secretion); format: cell-based
# Procedure, shortened: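 Heparinized peripheral human whole blood was preincubated with compound (11-point, 3-fold series, duplicate) for 2 h at 37 °C, then stimulated with IL-13 at 10 ng/mL final for 48 h at 37 °C. Secreted CCL17 in the serum was quantified by TR-FRET sandwich immunoassay (665/615 nm ratio, 16 h RT); IC50 derived.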
# [2] = STAT6 NanoLuc luciferase reporter, IL-13 stimulated HaCaT keratinocyte cells
# [3] = Homo sapiens, 48 h, inhibition of CCL17 secretion in human whole blood, 10 ng/mL IL13, 48 hours
# [4] = IL-13 stimulated HaCaT STAT6 NanoLuc reporter cells
# [5] = Homo sapiens, 48 h, human whole blood, IL-13 stimulated
# [6] = Homo sapiens, 48 h, human whole blood, 10 ng/mL IL13, 48 hours
Structure (SMILES),EC50 (STAT6; [2]),EC50 (STAT6; [4]),"IC50 [1, 6]",further results
"C[C@@H]1Cc2c(c(C(=O)NCc3ccc(NC(=O)N(C)C)cc3)nn2C)CN1c1ccc(C(=O)N(C)C)cn1 [Example 50, (R)-5-(5-(dimethylcarbamoyl)pyridin-2-yl)-N-(4-(3,3-dimethylureido)benzyl)-1,6-dimethyl-4,5,6,7-tetrahydro-1H-pyrazolo[4,3-c]pyridine-3-carboxamide]",35 nM,,,"IC50 [1, 3]: 151 nM"
"CN(C)C(=O)Nc1ccc(CNC(=O)c2nn(C)c3c2[C@H]2CCC[C@@H](C3)N2c2ccc(C(=O)N(C)C)cn2)cc1 (single isomer, unassigned) [Example 274]",,695 nM,,"IC50 [1, 5]: 4770 nM"
"CC1CN(c2ccc(C(=O)N(C)C)cn2)Cc2c(C(=O)NCc3ccc(NC(=O)N(C)C)cc3)nn(C)c21 (single isomer, unassigned) [Example 7, rel-(R or S)-5-(5-(Dimethylcarbamoyl)pyridin-2-yl)-N-(4-(3,3-dimethylureido)benzyl)-1,7-dimethyl-4,5,6,7-tetrahydro-1H-pyrazolo[4,3-c]pyridine-3-carboxamide]",33 nM,,,"IC50 ([1]; inhibition of CCL17 secretion in human whole blood, 10 ng/mL IL13, 48 hours): 196 nM"
"C[C@@H]1CN(c2ccc(C(=O)N(C)C)cn2)Cc2c(C(=O)NCc3ccc(NC(=O)N(C)C)cc3)nn(C3CCC3)c21 (single isomer, unassigned) [Example 557]",,15 nM,204 nM,
"CC(C)n1nc(C(=O)NCc2ccc(NC(=O)N3CCC4(CC3)CCN4C)c(F)c2)c2c1[C@@H](C)CN(c1ccc(C(=O)N(C)C)cn1)C2 [Example 602, (S)-5-(5-(dimethylcarbamoyl)pyridin-2-yl)-N-(3-fluoro-4-(1-methyl-1,7-diazaspiro[3.5]nonane-7-carboxamido)benzyl)-1-isopropyl-7-methyl-4,5,6,7-tetrahydro-1H-pyrazolo[4,3-c]pyridine-3-carboxamide]",,1 nM,14 nM,
"CC(C)n1nc(C(=O)NCc2ccc(NC(=O)N3CCNCC3)c(F)c2)c2c1[C@@H](C)CN(c1ccc(C(=O)N(C)C)cc1)C2 [Example 566, (S)-5-(4-(dimethylcarbamoyl)phenyl)-N-(3-fluoro-4-(piperazine-1-carboxamido)benzyl)-1-isopropyl-7-methyl-4,5,6,7-tetrahydro-1H-pyrazolo[4,3-c]pyridine-3-carboxamide]",,2 nM,15 nM,
"CC(C)n1nc(C(=O)NCc2ccc(NC(=O)N(C)C)cc2)c2c1CCN(c1ccc(N3C[C@@H](C)CC3=O)cn1)C2 [Example 66, (S)-N-(4-(3,3-dimethylureido)benzyl)-1-isopropyl-5-(5-(4-methyl-2-oxopyrrolidin-1-yl)pyridin-2-yl)-4,5,6,7-tetrahydro-1H-pyrazolo[4,3-c]pyridine-3-carboxamide]",13 nM,,,"IC50 [1, 3]: 89 nM"
"CC(n1nc(C(=O)NCc2ccc(NC(=O)N(C)C)cc2)c2c1[C@H](C)CN(c1ccc(C(=O)N(C)C)cn1)C2)C(F)(F)F (mixture of isomers) [Example 553, (R)-5-(5-(dimethylcarbamoyl)pyridin-2-yl)-N-(4-(3,3-dimethylureido)benzyl)-7-methyl-1-((RS)-1,1,1-trifluoropropan-2-yl)-4,5,6,7-tetrahydro-1H-pyrazolo[4,3-c]pyridine-3-carboxamide]",,4 nM,18 nM,
"COc1ccnc2c1CCN(C(=O)c1ccc(N3CCc4c(c(C(=O)NCc5ccc(NC(=O)N(C)C)cc5)nn4C(C)C)C3)nc1)C2 [Example 407, N-(4-(3,3-dimethylureido)benzyl)-1-isopropyl-5-(5-(4-methoxy-5,6,7,8-tetrahydro-1,7-naphthyridine-7-carbonyl)pyridin-2-yl)-4,5,6,7-tetrahydro-1H-pyrazolo[4,3-c]pyridine-3-carboxamide]",,10 nM,,"IC50 [1, 5]: 100 nM"
